“And” between values parts separate entries of the source, which are not always exact repeats. Equal entries are not always repeated.

Series [1] deals with cytochrome P450-dependent 7-ethoxycoumarin O-deethylase (ECOD). As to the kind of experiment: CYP-catalyzed ethoxycoumarin O-desalkylation (ECOD) inhibition assay with rat liver microsomes. The series is classed as biochemical. The following applies: rat hepatic microsomes; for ECOD activity: compound 0.08 mg/mL, activity relative to control (DMSO) = 100%. How it is done:
(§1) Male Wistar rats ([…] weight) were obtained from Universidade da Zona Oeste (UEZO). The animals were kept under light- and temperature-controlled conditions and were provided with rodent laboratory chow and water ad libitum. The rats were euthanized prior to the preparation of cytosolic and microsomal fractions. The livers were removed, placed in ice-cold 0.1 M phosphate buffer (pH 7.4) and then homogenized. Fractions were prepared by differential centrifugation and protein content was determined by Peterson’s methods.
(§2) 5,4′-Dihydroxy-7,3′5′-trimethoxyisoflavone (9), 7,3′-di-O-methylorobol (10), piscigenin (11), and sequoiaflavone (15) were accurately weighed. Solutions were prepared at a concentration of 8 mg/mL using DMSO as a solvent. CYP1A and GST assays were used aliquots of 10 µL of solution.
Ethoxycoumarin O-desalkylation by rat liver microsomes was used as a probe to determine CYP1A activity. Ethoxycumarin (1 mM), NADPH (1 mM), magnesium chloride (10 mM) and rat liver microsomes (5.5 μg) were incubated in phosphate buffer (0.1 M), pH 7.8 (0.5 mL ﬁnal volume). Incubations were at 37 °C for 5 min. The reaction was terminated with trichloroacetic acid (TCA) 2.5% followed by centrifugation (1000 g, 10 min). Immediately before ﬂuorescence determination, 2 mL of glycine-NaOH buffer were added and fluorescence of cumarin was determined (excitation: 390 nm and emission 440 nm). CYP activity was calculated as amount of produced cumarin per minute per protein mg. Assays containing phytochemicals were compared with control with DMSO (dimethylsulfoxide).

Series [2] has as its system glutathione S-transferase (GST). As to the kind of experiment: Glutathione S-transferase (GST) inhibition assay (CDNB conjugation) with rat hepatic cytosolic fraction. The series is classed as biochemical. The following applies: for inhibition of GST activity: 0.08 mg/mL; for GST activity: compound 0.08 mg/mL, activity relative to control (DMSO), CDNB substrate. As for the experimental part: as §1, §2
The conjugation of glutathione to 1-chloro-2,4,-dinitrobenzene (CDNB) was measured as a non-speciﬁc substrate for GST activity. To a quartz cuvette reduced cytosolic fraction (10 μg), CDNB (2 mM) and 100 mM potassium phosphate buffer (pH 6.1) were added in a ﬁnal volume of 1 mL. The cuvette was placed in a spectrophotometer and the reaction initiated by the addition of glutathione (5 mM). The increase in absorbance at 340 nm over a 3 min period was measured at room temperature. An extinction coefﬁcient of […] was used to determine activity from the initial slope of the reaction. GST activity was calculated as amount of produced conjugated per minute per protein mg. Assays containing phytochemicals were compared with control with DMSO (dimethylsulfoxide).

Series [3] has as its system 7-ethoxycoumarin O-deethylase (ECOD). Further details: method as in PMID 9522437. The following applies: liver microsomes from rats treated with 3-methylcholanthrene; cited from earlier work.
Another series deals with CYP1A1. Set-up: method as in PMID 15661813. Conditions: HepG2 cell; cited from earlier work.

For the molecule `COc1cc(-c2coc3cc(O)cc(O)c3c2=O)cc(OC)c1O` [Compound 11, piscigenin], the ECOD activity in series [1] was 53.5 ± 12.4%. For the same molecule, in series [2], the “inhibition of GST activity” value was about 70% and the GST activity was determined as 32.2 ±1.3%.
Consider `COc1cc(O)c2c(=O)cc(-c3ccc(O)c(-c4c(O)cc(O)c5c(=O)cc(-c6ccc(O)cc6)oc45)c3)oc2c1` [Compound 15, sequoiaflavone], for which, in series [1] (compared with control 100%, 0.08 mg/mL), the “inhibition of ECOD activity” value is listed as 75%. Further, the ECOD activity in series [1] is 24.8% and 24.8 ± 1.2%. The same molecule had a GST activity in series [2] of 77.4 ± 6.7%.
In the case of (±)-catechin, in series [3], the “effect on microsomal ECOD activity” value is recorded as “no effect”.
In the case of `COc1cc(OC)c2c(=O)cc(-c3ccccc3)oc2c1` [DMF, 5,7-Dimethoxyflavone], the “CYP1A1 EROD activity” value in the series with CYP1A1 is reported as “virtually down to zero”.
For the molecule `COc1cc(O)c2c(=O)c(-c3ccc(O)c(OC)c3)coc2c1` [Compound 10, 7,3′-di-O-methylorobol], in series [1], the ECOD activity is 77.8 ± 11.6%. For the same molecule, the “inhibition of GST activity” value in series [2] is recorded as “not observed”.
`COc1cc(O)c2c(=O)c(-c3cc(OC)c(O)c(OC)c3)coc2c1` [Compound 9, 5,4′-dihydroxy-7,5′,3′-trimethoxyisoflavone]: the ECOD activity in series [1] was determined as 66.9 ±27.7%. For the same molecule, in series [2], the “inhibition of GST activity” value is listed as about 75% and the GST activity is 25.3 ±5.3%.

These data come from article PMC6268742, “Flavonoids and Other Compounds from Ouratea ferruginea (Ochnaceae) as Anticancer and Chemopreventive Agents” (Molecules, 2012).
